In brackets after ≈: the same amount, converted by molar mass. Values belong to the molecule of their own block, whether it stands above or below them. Activity calls are given as the source filed them. The rule behind the calls is not given here.
Key:
[1] = molecular target: T1, Transmembrane 4 L6 family member 5 (Homo sapiens) (UniProt O14894); assay: Activation of TM4SF5 in human SNU449Tp cells in multilayer arrangement assessed as stimulation of cell growth at 20 uM incubated for 24 hrs by optical microscopy; type: cell-based
T1 sequence (whole entry): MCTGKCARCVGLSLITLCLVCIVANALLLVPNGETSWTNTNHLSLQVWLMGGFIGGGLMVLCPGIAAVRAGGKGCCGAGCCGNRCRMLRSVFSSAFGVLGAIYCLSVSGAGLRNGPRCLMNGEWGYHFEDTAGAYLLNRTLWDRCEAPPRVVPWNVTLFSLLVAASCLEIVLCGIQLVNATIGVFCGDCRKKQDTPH

[2] = molecular target: T1, Transmembrane 4 L6 family member 5 (Homo sapiens); assay: Activation of TM4SF5 in human SNU449Tp cells in monolayer arrangement assessed as stimulation of cell growth at 20 uM incubated for 24 hrs by optical microscopy; type: cell-based
[3] = molecular target: T1, Transmembrane 4 L6 family member 5 (Homo sapiens); assay: Activation of TM4SF5 in human SNU449Tp cells in monolayer arrangement assessed as effect on cell morphology at 20 uM incubated for 24 hrs by optical microscopy; type: cell-based
[4] = molecular target: T1, Transmembrane 4 L6 family member 5 (Homo sapiens); assay: Inhibition of TM4SF5 in human SNU449Tp cells assessed as effect on cell morphology at 20 uM incubated for 24 hrs by optical microscopy; type: cell-based
[5] = test system: HCT-15; assay: Cytotoxicity against human HCT15 cells assessed as reduction in cell viability by SRB assay; type: functional; settings: read-out: ED50 (the source's name)
[6] = test system: A549; assay: Cytotoxicity against human A549 cells assessed as reduction in cell viability by SRB assay; type: functional; settings: read-out: ED50 (the source's name)
[7] = molecular target: T1, Transmembrane 4 L6 family member 5 (Homo sapiens); assay: Inhibition of TM4SF5 in human HepG2 cells assessed as reduction in cell number at 1 to 20 ug/ml incubated up to 3 days; type: cell-based
[8] = molecular target: T1, Transmembrane 4 L6 family member 5 (Homo sapiens); assay: Inhibition of TM4SF5 in human SNU449Tp cells assessed as inhibition of S-phase progression at 20 uM followed by BrdU addition and incubated for 24 hrs by immunofluorescent staining; type: cell-based
[9] = molecular target: T1, Transmembrane 4 L6 family member 5 (Homo sapiens); assay: Inhibition of TM4SF5 in human SNU449Tp cells assessed as induction of return of elongated cell shape to polygonal shape by DAPI staining based assay
[10] = molecular target: T1, Transmembrane 4 L6 family member 5 (Homo sapiens); assay: Inhibition of TM4SF5 in human SNU449Tp cells assessed as reduction in MMP9 activity gel at 20 uM incubated for 24 hrs followed by medium exchange with serum-free medium and further incubated for 18 hrs by zymography; type: cell-based
[11] = test system: SNU-398; assay: Growth inhibition of TM4SF5 deficient human SNU398 cells assessed as reduction in cell number at 1 to 20 ug/ml incubated up to 3 days; type: cell-based; settings: snu-398, 72 h
[12] = molecular target: T1, Transmembrane 4 L6 family member 5 (Homo sapiens); assay: Inhibition of TM4SF5 in human SNU449Tp cells assessed as reduction in pY77 FAK expression by Western blotting analysis; type: cell-based
[13] = molecular target: T1, Transmembrane 4 L6 family member 5 (Homo sapiens); assay: Inhibition of TM4SF5 in human SNU449Tp cells assessed as reduction in p27Kip1 expression by Western blotting analysis; type: cell-based
[14] = molecular target: T1, Transmembrane 4 L6 family member 5 (Homo sapiens); assay: Inhibition of TM4SF5 in human SNU449Tp cells assessed as reduction in alpha-SMA expression by Western blotting analysis; type: cell-based
[15] = molecular target: T1, Transmembrane 4 L6 family member 5 (Homo sapiens); assay: Inhibition of TM4SF5 in human SNU449Tp cells assessed as reduction in MMP2 activity gel at 20 uM incubated for 24 hrs followed by medium exchange with serum-free medium and further incubated for 18 hrs by zymography; type: cell-based
[16] = molecular target: T1, Transmembrane 4 L6 family member 5 (Homo sapiens); assay: Inhibition of TM4SF5 in human SNU449Tp cells assessed as reduction in pS10 p27Kip1 expression by Western blotting analysis; type: cell-based
[17] = molecular target: T1, Transmembrane 4 L6 family member 5 (Homo sapiens); assay: Inhibition of TM4SF5 in human SNU449Tp cells assessed as restoration of cell-cell contact at 20 uM by E-cadherin and beta-catenin detection based immunofluorescent staining
[18] = molecular target: T1, Transmembrane 4 L6 family member 5 (Homo sapiens); assay: Inhibition of TM4SF5 in human SNU449Tp cells assessed as reduction in cell migration at 20 uM incubated for 18 hrs by Transwell chamber based assay
[19] = molecular target: T1, Transmembrane 4 L6 family member 5 (Homo sapiens); assay: Inhibition of TM4SF5 in human SNU449Tp cells assessed as reduction in cell invasion into collagen gel matrix at 20 uM incubated for 18 hrs; type: cell-based
[20] = molecular target: T1, Transmembrane 4 L6 family member 5 (Homo sapiens); assay: Inhibition of TM4SF5 in human SNU449Tp cells assessed as reduction in cytosolic p27Kip1 expression by immunofluorescent staining; type: cell-based
[21] = molecular target: T1, Transmembrane 4 L6 family member 5 (Homo sapiens); assay: Inhibition of TM4SF5 in human SNU449Tp cells assessed as reduction in cell invasion into Matrigel gel matrix at 20 uM incubated for 24 hrs; type: cell-based
[22] = Growth inhibition of TM4SF5 deficient human SNU449Cp cells assessed as reduction in cell number at 5 to 40 uM incubated up to 2 days; settings: 48 h
[23] = molecular target: T1, Transmembrane 4 L6 family member 5 (Homo sapiens); assay: Inhibition of TM4SF5 in human SNU449Tp cells assessed as restoration of reduced RhoA activity; type: cell-based
[24] = molecular target: T1, Transmembrane 4 L6 family member 5 (Homo sapiens); assay: Inhibition of TM4SF5 in human HuH7 cells assessed as reduction in cell number at 1 to 20 ug/ml incubated up to 3 days; type: cell-based
[25] = molecular target: T1, Transmembrane 4 L6 family member 5 (Homo sapiens); assay: Inhibition of TM4SF5 in human SNU449Tp cells assessed as increase in sensitivity of N-linked glycosylated region of TM4SF5 to PNGase F; type: cell-based
[26] = molecular target: T1, Transmembrane 4 L6 family member 5 (Homo sapiens); assay: Inhibition of TM4SF5 in human SNU368 cells assessed as reduction in cell number at 1 to 20 ug/ml incubated up to 3 days; type: cell-based
[27] = test system: PC-3; assay: Cytotoxicity against human PC3 cells assessed as reduction in cell viability by SRB assay; type: functional; settings: read-out: ED50 (the source's name)

Structure (SMILES): Cc1ccc(S(=O)(=O)Oc2ccc(C(=O)/C=C/c3ccc(O)cc3O)cc2)cc1
EC50 [5]: 8 mg/L (≈ 19.5 µM)
EC50 [6]: 10 mg/L (≈ 24.4 µM)

Structure (SMILES): O=C(/C=C/c1ccc(O)c(O)c1)c1ccc(OS(=O)(=O)c2cccc(F)c2)cc1
EC50 [27]: 8 mg/L (≈ 19.3 µM)
EC50 [5]: 7 mg/L (≈ 16.9 µM)

More lines, main results first:

Activity [1]: inactive
Activity [2]: Active
Activity [3]: Active
cell morphology effect (active/not active) [4]: inactive
Structure (SMILES): O=C(/C=C/c1ccc(O)cc1)c1ccc(O)cc1

inhibition [7]: Active
inhibition [8]: Active
inhibition [9]: Active
inhibition [10]: Active
inhibition [12]: Active
inhibition [13]: Active
inhibition [14]: Active
inhibition [15]: Active
inhibition [16]: Active
inhibition [17]: Active
inhibition [18]: Active
inhibition [19]: Active
inhibition [20]: Active
inhibition [21]: Active
inhibition [23]: Active
inhibition [24]: Active
inhibition [25]: Active
inhibition [26]: Active
cell morphology effect (active/not active) [4]: Active
Structure (SMILES): Cc1ccc(S(=O)(=O)Nc2ccc(C(=O)/C=C/c3ccc(O)cc3)cc2)cc1
growth inhibition (GI) [11]: Non-Toxic
growth inhibition (GI) [22]: Non-Toxic

Activity [1]: inactive
Activity [2]: Active
Activity [3]: Active
cell morphology effect (active/not active) [4]: inactive
Structure (SMILES): COc1ccc(C(=O)/C=C/c2ccc(O)cc2)cc1

Activity [1]: inactive
Activity [2]: Active
Activity [3]: Active
cell morphology effect (active/not active) [4]: inactive
Structure (SMILES): Nc1ccc(C(=O)/C=C/c2ccc(O)cc2)cc1

Source: ChEMBL document CHEMBL4420072, “Method for screening anti-cancer compounds inhibiting function of TM4SF5 and anti-cancer composition containing chalcone compounds” (2013)
